Data published in patent US9598421B2, “Imidazopyridazine compounds” (Pfizer Inc., priority 2014, dated 2017).
Like-named read-outs stand apart in the source and are kept apart here.

How the values were obtained:
Type in all cases: biochemical
Human PDE4C = Human PDE4C (Homo sapiens (Human), UniProt Q08493); assay: PDE4C Scintillation Proximity Assay (SPA), inhibition of enzyme activity; details: read-out: Human PDE4C FL
Description: (§1) The PDE4A3, PDE4B1, PDE4C1 and PDE4D3 assays use the Scintillation Proximity Assay (SPA) technology to measure the inhibition of human recombinant PDE4A1, PDE4B3, PDE4C1, and PDE4D3 enzyme activity by compounds in vitro. The PDE4A1, PDE4B3, PDE4C1, and PDE4D3 assays are run in parallel using identical parameters, except for the concentration of enzyme (80 pM PDE4A3, 40 pM PDE4B3, 40 pM PDE4C1 and 10 pM PDE4D). […] Reactions are incubated for 30 min at 25° C. The addition of 20 uL of 8 mg/ml yitrium silicate SPA beads (Perkin Elmer) stops the reaction. The plates are sealed (TopSeal, Perkin Elmer) and the beads are allowed to settle for 8 hrs, after which they are read on the Trilux Microbeta overnight.

Human PDE4D = Human PDE4D (Homo sapiens (Human), UniProt Q08499); assay: PDE4D Scintillation Proximity Assay (SPA), inhibition of enzyme activity; details: read-out: Human PDE4D FL
Human PDE4D, sequence (Q08499 186-808): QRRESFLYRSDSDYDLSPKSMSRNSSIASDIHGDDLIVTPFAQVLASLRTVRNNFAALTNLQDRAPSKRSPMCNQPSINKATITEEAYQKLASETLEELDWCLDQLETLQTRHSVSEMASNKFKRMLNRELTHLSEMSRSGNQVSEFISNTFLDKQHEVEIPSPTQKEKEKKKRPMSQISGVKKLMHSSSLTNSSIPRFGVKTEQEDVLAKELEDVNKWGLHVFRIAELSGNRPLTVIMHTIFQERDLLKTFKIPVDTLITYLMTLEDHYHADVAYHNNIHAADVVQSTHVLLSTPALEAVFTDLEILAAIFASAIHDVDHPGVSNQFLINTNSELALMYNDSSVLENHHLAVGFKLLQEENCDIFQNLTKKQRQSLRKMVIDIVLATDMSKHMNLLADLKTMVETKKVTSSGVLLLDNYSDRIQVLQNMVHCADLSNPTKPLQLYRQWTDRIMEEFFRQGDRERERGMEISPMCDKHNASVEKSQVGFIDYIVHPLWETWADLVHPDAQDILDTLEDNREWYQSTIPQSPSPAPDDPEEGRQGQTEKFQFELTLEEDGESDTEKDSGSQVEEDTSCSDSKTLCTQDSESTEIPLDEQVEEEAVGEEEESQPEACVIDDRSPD

Human PDE4A = Human PDE4A (Homo sapiens (Human), UniProt P27815); assay: PDE4A Scintillation Proximity Assay (SPA), inhibition of enzyme activity; details: read-out: Human PDE4A FL
Human PDE4A, sequence (P27815 other isoform, or with tags, fused parts or gaps): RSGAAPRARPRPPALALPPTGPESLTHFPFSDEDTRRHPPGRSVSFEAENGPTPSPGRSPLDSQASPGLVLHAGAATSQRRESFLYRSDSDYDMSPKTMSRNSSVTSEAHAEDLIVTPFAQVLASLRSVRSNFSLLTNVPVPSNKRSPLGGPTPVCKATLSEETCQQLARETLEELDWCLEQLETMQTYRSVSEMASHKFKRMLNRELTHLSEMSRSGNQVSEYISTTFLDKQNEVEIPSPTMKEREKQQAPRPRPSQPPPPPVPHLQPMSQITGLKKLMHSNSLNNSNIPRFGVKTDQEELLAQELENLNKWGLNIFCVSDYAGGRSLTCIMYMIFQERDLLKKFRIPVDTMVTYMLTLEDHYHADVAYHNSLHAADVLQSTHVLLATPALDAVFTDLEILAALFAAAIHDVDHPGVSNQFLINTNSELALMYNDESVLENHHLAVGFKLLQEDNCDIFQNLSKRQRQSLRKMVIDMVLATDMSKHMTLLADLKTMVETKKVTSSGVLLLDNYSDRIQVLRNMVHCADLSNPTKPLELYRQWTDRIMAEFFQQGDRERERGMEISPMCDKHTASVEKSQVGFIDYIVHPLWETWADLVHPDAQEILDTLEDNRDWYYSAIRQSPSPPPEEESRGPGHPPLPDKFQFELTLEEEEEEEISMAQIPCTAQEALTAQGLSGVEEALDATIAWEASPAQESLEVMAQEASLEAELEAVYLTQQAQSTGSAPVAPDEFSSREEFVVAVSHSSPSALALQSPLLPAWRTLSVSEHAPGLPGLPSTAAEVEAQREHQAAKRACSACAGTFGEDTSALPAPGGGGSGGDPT
Description: as §1

[1] = human recombinant enzyme, 1 μM cAMP substrate, 30 min at 25° C., geometric mean of 2-9 determinations unless otherwise indicated

Human PDE4C, sequence (Q08493 2-712): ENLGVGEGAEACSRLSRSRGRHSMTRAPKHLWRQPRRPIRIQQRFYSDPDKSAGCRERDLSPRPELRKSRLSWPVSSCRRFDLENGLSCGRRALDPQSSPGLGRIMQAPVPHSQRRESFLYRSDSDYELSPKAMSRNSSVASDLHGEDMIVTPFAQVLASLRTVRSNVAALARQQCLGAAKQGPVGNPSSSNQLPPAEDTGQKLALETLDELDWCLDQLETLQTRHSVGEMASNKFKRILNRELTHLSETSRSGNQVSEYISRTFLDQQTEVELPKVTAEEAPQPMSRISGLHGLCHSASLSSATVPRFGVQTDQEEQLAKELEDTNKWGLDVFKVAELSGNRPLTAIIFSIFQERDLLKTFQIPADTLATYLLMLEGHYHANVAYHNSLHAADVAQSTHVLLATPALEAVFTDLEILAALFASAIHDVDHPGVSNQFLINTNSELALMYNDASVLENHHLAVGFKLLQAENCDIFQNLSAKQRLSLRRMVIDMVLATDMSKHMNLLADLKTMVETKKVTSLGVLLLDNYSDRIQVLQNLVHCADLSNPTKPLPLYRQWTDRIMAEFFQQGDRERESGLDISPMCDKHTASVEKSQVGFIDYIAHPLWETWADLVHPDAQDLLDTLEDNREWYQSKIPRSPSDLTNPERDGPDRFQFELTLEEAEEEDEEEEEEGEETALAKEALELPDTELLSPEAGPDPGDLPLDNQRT

Row | SMILES | IC50 (Human PDE4C; [1]) [nM] | IC50 (Human PDE4D; [1]) [nM] | IC50 (Human PDE4A; [1]) [nM] | IC50 (Human PDE4C) [nM] | IC50 (Human PDE4D) [nM] | IC50 (Human PDE4A) [nM]
1 | CCCNC(=O)c1nc2cccnn2c1-c1cc(Cl)cc(Cl)c1 [Example 28, 3-(3,5-dichlorophenyl)-N-propylimidazo[1,2-b]pyridazine-2-carboxamide] | 49 | 393 | 15.6 | – | – | –
2 | CC1CC1NC(=O)c1nc2cccnn2c1-c1ccc(Cl)cc1 (stereo not drawn) [Example 30, 3-(4-chlorophenyl)-N-(2-methylcyclopropyl)imidazo[1,2-b]pyridazine-2-carboxamide] | 24.5 | 4000 | 11.6 | – | – | –
3 | O=C(NC1CC1)c1nc2cccnn2c1-c1ccc2ocnc2c1 [Example 39, 3-(1,3-benzoxazol-5-yl)-N-cyclopropylimidazo[1,2-b]pyridazine-2-carboxamide] | 67.8 | 3820 | 14.8 | – | – | –
4 | O=C(c1nc2cccnn2c1-c1ccc(Cl)c(F)c1)N1CCC1 [Example 13, azetidin-1-yl[3-(4-chloro-3-fluorophenyl)imidazo[1,2-b]pyridazin-2-yl]methanone] | 17.3 | 669 | 5.13 | – | – | –
5 | Cc1ccc(-c2c(C(=O)N3CCC3)nc3cccnn23)c(F)c1 [Example 54, azetidin-1-yl[3-(2-fluoro-4-methylphenyl)imidazo[1,2-b]pyridazin-2-yl]methanone] | 136 | > 20000 | 103 | – | – | –
6 | O=C(NC1CC1)c1nc2cccnn2c1-c1ccnc(C(F)(F)F)c1 [Example 42, N-cyclopropyl-3-[2-(trifluoromethyl)pyridin-4-yl]imidazo[1,2-b]pyridazine-2-carboxamide] | 357 | < 12200 | 415 | – | – | –
7 | O=C(NC12CC(C1)C2)c1nc2cccnn2c1-c1ccc(Cl)cc1 [Example 37, N-(bicyclo[1.1.1]pent-1-yl)-3-(4-chlorophenyl)imidazo[1,2-b]pyridazine-2-carboxamide] | 161 | 2570 | 127 | – | – | –
8 | CN(C(=O)c1nc2cccnn2c1-c1ccc(Cl)cc1)C1CC1 [Example 32, 3-(4-chlorophenyl)-N-cyclopropyl-N-methylimidazo[1,2-b]pyridazine-2-carboxamide] | 469 | > 30000 | 1030 | – | – | –
9 | COc1c(F)cc(-c2c(C(=O)N3CCC3)nc3cccnn23)cc1F [Example 3, Azetidin-1-yl[3-(3,5-difluoro-4-methoxyphenyl)imidazo[1,2-b]pyridazin-2-yl]methanone] | – | – | – | 51.9 | 2410 | 12.7
10 | N#Cc1ccc(-c2c(C(=O)N3CCC3)nc3cccnn23)cc1F [Example 23, 4-[2-(azetidin-1-ylcarbonyl)imidazo[1,2-b]pyridazin-3-yl]-2-fluorobenzonitrile] | 45.8 | 4130 | 15.1 | – | – | –
11 | O=C(c1nc2cccnn2c1-c1ccc2ncoc2c1)N1CCC1 [Example 77, azetidin-1-yl[3-(1,3-benzoxazol-6-yl)imidazo[1,2-b]pyridazin-2-yl]methanone] | 186 | > 16600 | 46.1 | – | – | –
12 | O=C(NC1CC1)c1nc2cccnn2c1-c1cncc(Cl)c1 [Example 14, 3-(5-chloropyridin-3-yl)-N-cyclopropylimidazo[1,2-b]pyridazine-2-carboxamide] | 108 | > 8010 | 73.7 | – | – | –
13 | O=C(NC1CC1)c1nc2cccnn2c1-c1ccc(Cl)c(F)c1 [Example 10, 3-(4-chloro-3-fluorophenyl)-N-cyclopropylimidazo[1,2-b]pyridazine-2-carboxamide] | 6.84 | 590 | 1.51 | – | – | –
14 | O=C(c1nc2cccnn2c1-c1ccc(Cl)cc1)N1CC(F)C1 [Example 60, [3-(4-chlorophenyl)imidazo[1,2-b]pyridazin-2-yl](3-fluoroazetidin-1-yl)methanone] | 287 | > 4930 | 269 | – | – | –
15 | N#Cc1ccc(-c2c(C(=O)NC3CC3)nc3cccnn23)cc1F [Example 90, 3-(4-cyano-3-fluorophenyl)-N-cyclopropylimidazo[1,2-b]pyridazine-2-carboxamide] | 25.5 | 2620 | 21.4 | – | – | –
16 | O=C(N[C@@H]1C[C@@H]1F)c1nc2cccnn2c1-c1ccc(Cl)cc1 [Example 46, 3-(4-chlorophenyl)-N-[(1R,2S)-2-fluorocyclopropyl]imidazo[1,2-b]pyridazine-2-carboxamide] | 39.3 | 971 | 15.2 | – | – | –
17 | O=C(NC1CC1)c1nc2cccnn2c1-c1ccc(Cl)cc1F [Example 40, 3-(4-chloro-2-fluorophenyl)-N-cyclopropylimidazo[1,2-b]pyridazine-2-carboxamide] | 58.1 | 9020 | 19.6 | – | – | –
18 | Cc1cc(-c2c(C(=O)N3CCC3)nc3cccnn23)c(F)cc1C#N [Example 18, 4-[2-(azetidin-1-ylcarbonyl)imidazo[1,2-b]pyridazin-3-yl]-5-fluoro-2-methylbenzonitrile] | 147 | 8200 | 55 | – | – | –
19 | O=C(NC1CC1)c1nc2cccnn2c1-c1ccnc(OC(F)F)c1 [Example 75, N-cyclopropyl-3-[2-(difluoromethoxy)pyridin-4-yl]imidazo[1,2-b]pyridazine-2-carboxamide] | 24.9 | 104 | 10.5 | – | – | –
20 | Cc1cc(Cl)ccc1-c1c(C(=O)NC2CC2)nc2cccnn12 [Example 12, 3-(4-chloro-2-methylphenyl)-N-cyclopropylimidazo[1,2-b]pyridazine-2-carboxamide] | 89.6 | 5220 | 14.4 | – | – | –
